These compounds were tested on HeLa galactose cells (assay: Cell growth and proliferation assay of HeLa galactose cells (crystal violet)). Details: 72 hours incubation, crystal violet staining, absorbance at 590 nm.
Assay type: cell-based
Experimental: The cervical tumor cell line HeLa (ATCC, CCL-2) was cultivated in DMEM medium (Invitrogen cat. no. 11971, 4.5 g/L high glucose) containing 10% fetal calf serum (Sigma cat. no. F9665) and 1% Penicillin/Streptomycin (Sigma cat. no. P0781) at 37° C. in 5% CO2. HeLa galactose cells (i.e. HeLa cells that grow in high concentrations of galactose) were generated from HeLa glucose cells (i.e. HeLa cells that grow in high concentrations of glucose) by gradually changing the amount of glucose in the media to zero glucose in the presence of galactose as a sugar source (50% galactose/50% glucose media for one week, then 75% galactose/25% glucose media for one week, to 100% galactose media in the third week). Galactose media (Invitrogen cat. no. 11966) was supplemented with 10 mM galactose (Sigma cat. no. G5388).
Cell Growth and Proliferation Assay of HeLa Galactose and Glucose Cells
HeLa galactose cells and HeLa glucose cells were seeded in 96 well plates (TPP, cat. no 92696) at 2000 and 1500 cells/well, respectively, in 100 μL of complete medium. After overnight incubation the cells were incubated for 72 hours in complete medium containing 0.001% DMSO or compounds (final concentration of DMSO 0.001%). After the medium was removed, cells were fixed and stained by adding 50 μL crystal violet staining (0.2% crystal violet (Sigma-Aldrich cat. no. C0775) in 50% methanol) per well. The plates were incubated for 1 hour at room temperature. Subsequently the stain was decanted and plates were washed 4 times with de-mineralized water. Plates were air-dried for 2 hours. The stain was dissolved by adding 100 μL buffer (0.1 M Tris pH 7.5, 0.2% SDS, 20% ethanol) per well and shaking the plates. Absorbance at 590 nm was measured using a SpectraMax® 250 plate reader (Molecular Devices). Antiproliferative/growth inhibition IC50s were calculated from concentration-response curves using GraphPad Prism software.
Work on `COCC1CN(C(=O)Nc2nc(C)ns2)CC/C1=C/c1ccc(Cl)cc1F` (stereo not drawn) [Example 130, (4Z)-4-[(4-chloro-2-fluoro-phenyl)methylene]-3-(methoxymethyl)-N-(3-methyl-1,2,4-thiadiazol-5-yl)piperidine-1-carboxamide] yielded an IC50 of 355 nM.
With `COCC1CN(C(=O)Nc2nc(C)ns2)CC/C1=C/c1ccc(Cl)cc1F` (stereo not drawn) [Example 133] the IC50 was 100 nM.

Same assay, conditions: Homo sapiens, HeLa, 72 h, 72 hours incubation, crystal violet staining, absorbance at 590 nm
`O=C(Nc1ccncn1)N1CCC(Cc2ccc(Cl)cc2Cl)CC1` [Example 22, 4-[(2,4-dichlorophenyl)methyl]-N-pyrimidin-4-yl-piperidine-1-carboxamide] showed an IC50 of 837 nM.
Work on `COc1ccc(CC2CCN(C(=O)Nc3nc(C)ns3)CC2)c(N)c1` [Example 23] yielded an IC50 of 356 nM.
`Cc1nsc(NC(=O)N2CCC(Cc3ccc(OCC(C)C)cc3F)CC2)n1` [Example 31] showed an IC50 of 795 nM.
With `Cc1nsc(NC(=O)N2CCC(Cc3ccc(CN4CCOCC4)cc3)CC2)n1` [Example 34, N-(3-methyl-1,2,4-thiadiazol-5-yl)-4-[[4-(morpholinomethyl)phenyl]methyl]piperidine-1-carboxamide] the IC50 was 572 nM.
`COC(=O)c1ccc(CC2CCN(C(=O)Nc3nc(C)ns3)CC2)c(F)c1` [Example 36] gave an IC50 of 540 nM.
With `Cc1nsc(NC(=O)N2CCC(Cc3ccc(C(N)=O)cc3F)CC2)n1` [Example 37, 4-[(4-carbamoyl-2-fluoro-phenyl)methyl]-N-(3-methyl-1,2,4-thiadiazol-5-yl)piperidine-1-carboxamide] the IC50 was 478 nM.
For `Cc1nsc(NC(=O)N2CCC(Cc3ccc(N4CCCC4)cc3)CC2)n1` [Example 42], the IC50 was 670 nM.
`Cc1nsc(NC(=O)N2CCC(=Cc3ccc(N4CCCC4)cc3)CC2)n1` [Example 43] was tested, and the IC50 was 439 nM.
`Cc1nsc(NC(=O)N2CCC(Cc3ccc(N4CCCC4)cc3F)CC2)n1` [Example 44] showed an IC50 of 429 nM.
With `Cc1nsc(NC(=O)N2CCC(Cc3ccc(Cl)cn3)CC2)n1` [Example 61] the IC50 was 516 nM.
`Cc1nsc(NC(=O)N2CCC(Oc3ccc(F)cc3)CC2)n1` [Example 73] showed an IC50 of 465 nM.
Work on `NC(=O)Cc1nsc(NC(=O)N2CCC(=Cc3ccc(Cl)cc3F)CC2)n1` [Example 81, N-[3-(2-amino-2-oxo-ethyl)-1,2,4-thiadiazol-5-yl]-4-[(4-chloro-2-fluoro-phenyl)methylene]piperidine-1-carboxamide] yielded an IC50 of 888 nM.
Work on `Cc1nsc(NC(=O)N2CCC(=Cc3ccc(C=O)cc3F)CC2)n1` [Example 88, 4-[(2-fluoro-4-formyl-phenyl)methylene]-N-(3-methyl-1,2,4-thiadiazol-5-yl)piperidine-1-carboxamide] yielded an IC50 of 418 nM.
For `Cc1nsc(NC(=O)N2CCC(=Cc3ccc(CN(C)CCO)cc3F)CC2)n1` [Example 90, 4-[[2-fluoro-4-[[2-hydroxyethyl(methyl)amino]methyl]phenyl]methylene]-N-(3-methyl-1,2,4-thiadiazol-5-yl)piperidine-1-carboxamide], the IC50 was 693 nM.
Work on `Cc1nsc(NC(=O)N2CCC(=Cc3ccc(CNCCCN4CCOCC4)cc3F)CC2)n1` [Example 91] yielded an IC50 of 492 nM.
Compound `Cc1nsc(NC(=O)N2CCC(=Cc3c(F)cc(O)cc3F)CC2)n1` [Example 99, 4-[(2,6-difluoro-4-hydroxy-phenyl)methylene]-N-(3-methyl-1,2,4-thiadiazol-5-yl)piperidine-1-carboxamide] has an IC50 of 307 nM.
Work on `CC(=C1CCN(C(=O)Nc2nc(C)ns2)CC1)c1ccc(Cl)cc1F` [Example 104] yielded an IC50 of 642 nM.
`Cc1nsc(NC(=O)N2CCC(C(C)c3ccc(Cl)cc3F)CC2)n1` (stereo not drawn) [Example 105] was tested, and the IC50 was 482 nM.
`Cc1nsc(NC(=O)N2CCC(=Cc3ccc(Cl)cc3F)C(F)C2)n1` (stereo not drawn) [Example 106] showed an IC50 of 467 nM.
Work on `Cc1nsc(NC(=O)N2CCC(=Cc3ccc(OCCCO)cc3F)CC2)n1` [Example 107, 4-[[2-fluoro-4-(3-hydroxypropoxy)phenyl]methylene]-N-(3-methyl-1,2,4-thiadiazol-5-yl)piperidine-1-carboxamide] yielded an IC50 of 389 nM.
Work on `Cc1nsc(NC(=O)N2CCC(=Cc3ccc(OCCCN)cc3F)CC2)n1` [Example 111] yielded an IC50 of 514 nM.
`Cc1nsc(NC(=O)N2CCC(=Cc3ccc(N)cc3F)CC2)n1` [Example 119, 4-[(4-amino-2-fluoro-phenyl)methylene]-N-(3-methyl-1,2,4-thiadiazol-5-yl)piperidine-1-carboxamide] showed an IC50 of 159 nM.
`Cc1nsc(NC(=O)N2CCC(=Cc3ccc(N(C)CCN)cc3F)CC2)n1` [Example 122, 4-[[4-[2-aminoethyl(methyl)amino]-2-fluoro-phenyl]methylene]-N-(3-methyl-1,2,4-thiadiazol-5-yl)piperidine-1-carboxamide] showed an IC50 of 182 nM.
With `CC(=O)NCCN(C)c1ccc(C=C2CCN(C(=O)Nc3nc(C)ns3)CC2)c(F)c1` [Example 123, 4-[[4-[2-acetamidoethyl(methyl)amino]-2-fluoro-phenyl]methylene]-N-(3-methyl-1,2,4-thiadiazol-5-yl)piperidine-1-carboxamide] the IC50 was 245 nM.
`Cc1nsc(NC(=O)N2CCC(=Cc3ccc(N(C)CCCN)cc3F)CC2)n1` [Example 124] showed an IC50 of 70 nM.
With `Cc1nsc(NC(=O)N2CCCC(=Cc3ccc(N(C)C)cc3F)CC2)n1` [Example 125] the IC50 was 63 nM.
For `Cc1nsc(NC(=O)N2CCCC(Cc3ccc(N(C)C)cc3F)CC2)n1` (stereo not drawn) [Example 126], the IC50 was 68 nM.
`Nc1cc(NC(=O)N2CCC(=Cc3ccc(Cl)cc3F)CC2)ccn1` [Example 131] was tested, and the IC50 was 264 nM.
`Cc1cc(NC(=O)N2CCC(=Cc3ccc(N(C)C)cc3F)CC2)ccn1` [Example 132] gave an IC50 of 76 nM.
Compound `COCCC1CN(C(=O)Nc2nc(C)ns2)CC/C1=C/c1ccc(Cl)cc1F` (stereo not drawn) [Example 134, (4Z)-4-[(4-chloro-2-fluoro-phenyl)methylene]-3-(2-methoxyethyl)-N-(3-methyl-1,2,4-thiadiazol-5-yl)piperidine-1-carboxamide] has an IC50 of 449 nM.
With `COCCC1CN(C(=O)Nc2nc(C)ns2)CC/C1=C\c1ccc(Cl)cc1F` (stereo not drawn) [Example 135, (4E)-4-[(4-chloro-2-fluoro-phenyl)methylene]-3-(2-methoxyethyl)-N-(3-methyl-1,2,4-thiadiazol-5-yl)piperidine-1-carboxamide] the IC50 was 636 nM.
For `Cc1cc(NC(=O)N2CCC(=Cc3ccc(Cl)cc3F)CC2)ncn1` [Example 136], the IC50 was 81 nM.
`Cc1nsc(NC(=O)N2CCC(C(=O)c3ccc(C(F)(F)F)cc3F)CC2)n1` [Example 142, 4-[2-fluoro-4-(trifluoromethyl)benzoyl]-N-(3-methyl-1,2,4-thiadiazol-5-yl)piperidine-1-carboxamide] was tested, and the IC50 was 86 nM.
For `Cc1nsc(NC(=O)N2CCC(=Cc3c(F)cc(NC4CCOC4)cc3F)CC2)n1` (stereo not drawn) [Example 150], the IC50 was 124 nM.
`Cc1nsc(NC(=O)N2CCC(C(=O)c3ccc(N(C)C)cc3F)CC2)n1` [Example 155, 4-[4-(dimethylamino)-2-fluoro-benzoyl]-N-(3-methyl-1,2,4-thiadiazol-5-yl)piperidine-1-carboxamide] gave an IC50 of 149 nM.
In the case of `Cc1cc(NC(=O)N2CCC(C(=O)c3ccc(N(C)C)cc3F)CC2)ccn1` [Example 156], the IC50 is reported as 193 nM.
`CCN(CC)c1cc(F)c(C=C2CCN(C(=O)Nc3nc(C)ns3)CC2)c(F)c1` [Example 159] was tested, and the IC50 was 215 nM.
With `Cc1nsc(NC(=O)N2CCN(Cc3ccc(Cl)cc3F)CC(O)C2)n1` (stereo not drawn) [Example 162] the IC50 was 162 nM.
Work on `Cc1nsc(NC(=O)N2CCC(=Cc3ccc(N(C)CCCCN)cc3F)CC2)n1` [Example 163] yielded an IC50 of 293 nM.
`Cc1cc(NC(=O)N2CCC(Cc3ccc(Cl)cc3F)CC2)cnn1` [Example 165] gave an IC50 of 383 nM.
`CNc1nsc(NC(=O)N2CCC(Cc3ccc(Cl)cc3F)CC2)n1` [Example 166, 4-[(4-chloro-2-fluoro-phenyl)methyl]-N-[3-(methylamino)-1,2,4-thiadiazol-5-yl]piperidine-1-carboxamide] was tested, and the IC50 was 407 nM.
`Cc1nsc(NC(=O)N2CCC(Cc3c(F)cc(Cl)cc3F)CC2(C)C)n1` (stereo not drawn) [Example 167] gave an IC50 of 500 nM.
In the case of `Cc1nsc(NC(=O)N2CC/C(=C\c3c(F)cc(Cl)cc3F)CC2(C)C)n1` [Example 168], the IC50 is reported as 280 nM.
With `Cc1nsc(NC(=O)N2CC/C(=C/c3c(F)cc(Cl)cc3F)CC2(C)C)n1` [Example 169] the IC50 was 432 nM.
With `Cc1nsc(NC(=O)N2CCC(=Cc3ccc(C#CCO)cc3F)CC2)n1` [Example 170, 4-[[2-fluoro-4-(3-hydroxyprop-1-ynyl)phenyl]methylene]-N-(3-methyl-1,2,4-thiadiazol-5-yl)piperidine-1-carboxamide] the IC50 was 415 nM.
For `Cc1nsc(NC(=O)N2CCC(C(=O)c3ccc(C#N)cc3F)CC2)n1` [Example 171], the IC50 was 67 nM.
`Cc1cc(NC(=O)N2CCC(C(=O)c3ccc(C#N)cc3F)CC2)ccn1` [Example 172] showed an IC50 of 126 nM.
In the case of `Cc1cc(NC(=O)N2CCC(C(=O)c3c(F)cc(C#N)cc3F)CC2)ccn1` [Example 174], the IC50 is reported as 160 nM.
Compound `Cc1cc(NC(=O)N2CCC(=Cc3c(F)cc(C#N)cc3F)CC2)ccn1` [Example 175] has an IC50 of 58 nM.

From patent US20190142810A1, “MITOCHONDRIAL INHIBITORS FOR THE TREATMENT OF PROLIFERATION DISORDERS” (Basilea Pharmaceutica International AG, priority 2016, published 2019)
